The text below walks through data of patent publication US20250312334A1, “COMPOSITION CONTAINING ARIPIPRAZOLE AS ACTIVE INGREDIENT FOR ENHANCING ANTICANCER EFFECT OF RAF INHIBITOR” (KOREA INSTITUTE OF RADIOLOGICAL & MEDICAL SCIENCES, priority 2022, published 2025).

In the assay the test system is COLO 205 cells. Briefly: Western blot of NOXA and PUMA protein expression after aripiprazole treatment. The settings on record: 8 hours after treatment, Western blot (FIG. 1). It is filed as cell-based. How it is done: To identify an effect of aripiprazole on the expression of NOXA and PUMA proteins in cancer cells, COLO 205 cells were treated with aripiprazole. Eight hours later, proteins were extracted from cells after washing with PBS, and a level of NOXA and PUMA expression was checked via Western blot.
For orientation: A western blot detects proteins with antibodies after separation by electrophoresis.

On to `O=C1CCc2ccc(OCCCCN3CCN(c4cccc(Cl)c4Cl)CC3)cc2N1` [aripiprazole], for which the “expression of NOXA protein” value was “increased” and the “expression of PUMA protein” value is “increased”.
